Measured values published in ChEMBL document CHEMBL5634109, “Synthesis and mechanism of action of new purine derivatives against triple negative breast cancer” (Eur J Med Chem, 2023).
Activity calls are given as the source filed them. No cut-off for these calls is given here.

Columns and labels:
[1] = target: Cyclin-dependent kinase 7 (Homo sapiens, UniProt P50613); assay: Inhibition of CDK7 (unknown origin)
[2] = target: Dual specificity protein kinase CLK2 (Homo sapiens, UniProt P49760); assay: Inhibition of CLK2 (unknown origin)
Chain of Dual specificity protein kinase CLK2 (P49760 whole entry): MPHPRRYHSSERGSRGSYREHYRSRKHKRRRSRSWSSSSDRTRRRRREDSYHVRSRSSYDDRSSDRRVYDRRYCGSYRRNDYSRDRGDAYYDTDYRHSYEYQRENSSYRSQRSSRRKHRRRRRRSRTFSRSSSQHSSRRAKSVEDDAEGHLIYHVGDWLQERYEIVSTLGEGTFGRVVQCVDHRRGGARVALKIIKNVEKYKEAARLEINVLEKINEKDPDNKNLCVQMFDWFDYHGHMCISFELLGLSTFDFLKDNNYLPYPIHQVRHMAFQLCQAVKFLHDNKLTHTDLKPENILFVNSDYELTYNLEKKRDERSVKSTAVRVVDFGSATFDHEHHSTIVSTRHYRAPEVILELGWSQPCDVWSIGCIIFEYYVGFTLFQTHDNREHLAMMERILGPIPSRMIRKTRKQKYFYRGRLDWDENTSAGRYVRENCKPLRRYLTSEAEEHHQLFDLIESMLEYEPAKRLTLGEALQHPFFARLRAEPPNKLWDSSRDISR

[3] = target: Dual specificity protein kinase CLK4 (Homo sapiens, UniProt Q9HAZ1); assay: Inhibition of CLK4 (unknown origin)
Chain of Dual specificity protein kinase CLK4 (Q9HAZ1 whole entry): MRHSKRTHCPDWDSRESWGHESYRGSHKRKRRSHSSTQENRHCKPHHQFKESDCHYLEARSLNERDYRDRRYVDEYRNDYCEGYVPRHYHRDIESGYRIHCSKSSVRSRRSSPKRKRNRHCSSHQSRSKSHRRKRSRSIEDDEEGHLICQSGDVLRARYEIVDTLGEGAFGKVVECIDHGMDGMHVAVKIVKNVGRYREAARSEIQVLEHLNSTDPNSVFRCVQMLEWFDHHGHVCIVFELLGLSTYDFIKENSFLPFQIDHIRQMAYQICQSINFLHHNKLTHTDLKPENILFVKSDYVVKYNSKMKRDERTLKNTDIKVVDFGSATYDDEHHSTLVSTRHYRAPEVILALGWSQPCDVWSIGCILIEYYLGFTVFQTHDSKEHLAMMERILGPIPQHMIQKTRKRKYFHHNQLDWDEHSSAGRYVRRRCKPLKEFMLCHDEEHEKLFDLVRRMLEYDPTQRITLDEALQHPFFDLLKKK

[4] = target: Dual specificity protein kinase CLK1 (Homo sapiens, UniProt P49759); assay: Inhibition of CLK1 (unknown origin)
Chain of Dual specificity protein kinase CLK1 (P49759 whole entry, canonical isoform): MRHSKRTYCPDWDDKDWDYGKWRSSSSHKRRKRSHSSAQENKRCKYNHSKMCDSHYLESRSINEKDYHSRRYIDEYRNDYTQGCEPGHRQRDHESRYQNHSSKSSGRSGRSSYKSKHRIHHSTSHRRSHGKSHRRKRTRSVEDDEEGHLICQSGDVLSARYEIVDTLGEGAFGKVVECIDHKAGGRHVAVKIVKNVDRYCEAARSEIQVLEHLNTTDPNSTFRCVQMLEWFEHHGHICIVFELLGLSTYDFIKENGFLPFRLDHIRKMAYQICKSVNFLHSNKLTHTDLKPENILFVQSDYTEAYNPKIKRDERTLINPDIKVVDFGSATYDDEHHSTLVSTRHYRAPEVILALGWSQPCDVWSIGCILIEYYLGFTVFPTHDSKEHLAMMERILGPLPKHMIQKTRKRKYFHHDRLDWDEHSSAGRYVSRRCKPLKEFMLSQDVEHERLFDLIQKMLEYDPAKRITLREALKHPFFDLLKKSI

[5] = target: Casein kinase I isoform epsilon (Homo sapiens, UniProt P49674); assay: Inhibition of CK1epsilon (unknown origin)
Chain of Casein kinase I isoform epsilon (P49674 whole entry, canonical isoform): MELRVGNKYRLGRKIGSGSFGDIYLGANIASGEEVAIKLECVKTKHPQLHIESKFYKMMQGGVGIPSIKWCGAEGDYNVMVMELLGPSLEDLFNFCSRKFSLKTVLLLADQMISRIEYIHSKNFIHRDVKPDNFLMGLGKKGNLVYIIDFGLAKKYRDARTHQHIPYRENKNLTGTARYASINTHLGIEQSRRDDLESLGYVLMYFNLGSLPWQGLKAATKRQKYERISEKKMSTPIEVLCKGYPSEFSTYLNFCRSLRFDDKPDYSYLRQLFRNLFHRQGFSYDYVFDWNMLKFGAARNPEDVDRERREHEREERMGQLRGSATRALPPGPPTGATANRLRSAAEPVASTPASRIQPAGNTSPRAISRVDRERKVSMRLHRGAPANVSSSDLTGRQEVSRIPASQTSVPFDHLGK

[6] = target: Dual specificity tyrosine-phosphorylation-regulated kinase 1A (Homo sapiens, UniProt Q13627); assay: Inhibition of DYRK1A (unknown origin)
[7] = test system: K562; assay: Antiproliferative activity against human K562 cells assessed as reduction in cell viability measured for 48 hrs by MTT assay; type: functional, cell-based; conditions: K562, 48 h
[8] = test system: HepG2; assay: Antiproliferative activity against human HepG2 cells assessed as reduction in cell viability measured for 48 hrs by MTT assay; type: functional, cell-based; conditions: HepG2, 48 h
[9] = test system: HCT-116; assay: Antiproliferative activity against human HCT-116 cells assessed as reduction in cell viability measured for 48 hrs by MTT assay; type: functional, cell-based; conditions: HCT-116, 48 h
[10] = test system: MCF7; assay: Antiproliferative activity against human MCF7 cells assessed as reduction in cell viability measured for 48 hrs by MTT assay; type: functional, cell-based; conditions: MCF7, 48 h
[11] = test system: MGC-803; assay: Antiproliferative activity against human MGC-803 cells assessed as reduction in cell viability measured for 48 hrs by MTT assay; type: functional, cell-based; conditions: MGC-803, 48 h
[12] = test system: A549; assay: Antiproliferative activity against human A549 cells assessed as reduction in cell viability measured for 48 hrs by MTT assay; type: functional, cell-based; conditions: A549, 48 h
[13] = test system: NCI-H1299; assay: Antiproliferative activity against human NCI-H1299 cells assessed as reduction in cell viability measured for 48 hrs by MTT assay; type: functional, cell-based; conditions: NCI-H1299, 48 h
[14] = test system: HT-29; assay: Antiproliferative activity against human HT-29 cells assessed as reduction in cell viability measured for 48 hrs by MTT assay; type: functional, cell-based; conditions: HT-29, 48 h
[15] = test system: PC-3; assay: Antiproliferative activity against human PC-3 cells assessed as reduction in cell viability measured for 48 hrs by MTT assay; type: functional, cell-based; conditions: PC-3, 48 h
[16] = test system: MDA-MB-231; assay: Antiproliferative activity against human MDA-MB-231 cells assessed as reduction in cell viability measured for 48 hrs by MTT assay; type: functional, cell-based; conditions: MDA-MB-231, 48 h
[17] = test system: MDA-MB-468; assay: Antiproliferative activity against human MDA-MB-468 cells assessed as reduction in cell viability measured for 48 hrs by MTT assay; type: functional, cell-based; conditions: MDA-MB-468, 48 h
[18] = Antiproliferative activity against human HUVEC cells assessed as reduction in cell viability measured for 48 hrs by MTT assay; type: toxicity, cell-based
[19] = Antiproliferative activity against human HEK293 cells assessed as reduction in cell viability measured for 48 hrs by MTT assay; type: toxicity, cell-based
[20] = test system: MDA-MB-231; assay: Antiproliferative activity against human MDA-MB-231 cells assessed as reduction in viability at 4 uM incubated for 7.5 hrs by MTT assay; type: functional
[21] = test system: MDA-MB-231; assay: Antiproliferative activity against human MDA-MB-231 cells assessed as reduction in viability at 10 uM incubated for 7.5 hrs by MTT assay; type: functional
[22] = test system: MDA-MB-231; assay: Induction of apoptosis in human MDA-MB-231 cells assessed as formation of apoptotic bodies at 4 uM incubated for 6 hrs; type: functional, cell-based
[23] = test system: MDA-MB-231; assay: Induction of apoptosis in human MDA-MB-231 cells assessed as change in cell shape at 4 uM incubated for 12 to 24 hrs; type: functional, cell-based; conditions: time 12-24 hrs
[24] = test system: MDA-MB-231; assay: Induction of apoptosis in human MDA-MB-231 cells assessed as increase in number of apoptotic bodies at 4 uM incubated for 48 hrs; type: functional, cell-based
[25] = test system: MDA-MB-231; assay: Induction of apoptosis in human MDA-MB-231 cells assessed as increase in number of cell debris at 4 uM incubated for 48 hrs; type: functional, cell-based
[26] = test system: MDA-MB-231; assay: Induction of apoptosis in human MDA-MB-231 cells assessed as apoptotic cells at 4 uM incubated for 12 hrs by Annexin V-FITC/PI staining based analysis; type: functional
[27] = test system: MDA-MB-231; assay: Induction of apoptosis in human MDA-MB-231 cells assessed as apoptotic cells at 4 uM incubated for 24 hrs by Annexin V-FITC/PI staining based analysis; type: functional
[28] = test system: MDA-MB-231; assay: Induction of apoptosis in human MDA-MB-231 cells assessed as apoptotic cells at 4 uM incubated for 48 hrs by Annexin V-FITC/PI staining based analysis; type: functional
[29] = test system: MDA-MB-231; assay: Induction of apoptosis in human MDA-MB-231 cells assessed as apoptotic cells at 40 uM incubated for 12 hrs by Annexin V-FITC/PI staining based analysis; type: functional
[30] = test system: MDA-MB-231; assay: Induction of apoptosis in human MDA-MB-231 cells assessed as apoptotic cells at 40 uM incubated for 24 hrs by Annexin V-FITC/PI staining based analysis; type: functional
[31] = test system: MDA-MB-231; assay: Induction of apoptosis in human MDA-MB-231 cells assessed as apoptotic cells at 40 uM incubated for 48 hrs by Annexin V-FITC/PI staining based analysis; type: functional
[32] = test system: MDA-MB-231; assay: Induction of ROS generation in human MDA-MB-231 cells assessed as increase in intracellular ROS level at 40 uM incubated for 48 hrs by DCFH-DA staining based fluorescence microscopic analysis (Rvb=41.4%); type: functional
[33] = test system: Cell membrane; assay: Induction of mitochondrial membrane potential loss in human MDA-MB-231 cells assessed as increase in fluorescence intensity at 40 uM incubated for 48 hrs by TMRM dye based flow cytometry analysis (reference value: 97.5%)
[34] = test system: MDA-MB-231; assay: Inhibition of cell migration human MDA-MB-231 cells assessed as migration distance at 25 uM incubated for 24 hrs by wound healing assay (reference value: 642.72 micrometer); type: functional
[35] = test system: MDA-MB-231; assay: Inhibition of cell migration human MDA-MB-231 cells assessed as migration distance at 25 uM incubated for 48 hrs by wound healing assay (reference value: 642.72 micrometer); type: functional
[36] = test system: MDA-MB-231; assay: Inhibition of cell migration human MDA-MB-231 cells at 0.01 to 0.4 uM incubated for 20 hrs by DAPI staining based analysis; type: functional; conditions: dose 0.01-0.4 µM
[37] = test system: HUVEC; assay: Antiangiogenesis activity in HUVEC cells at 62.5 nM incubated for 12 hrs by microscopic analysis; type: functional, cell-based; conditions: Homo sapiens
[38] = test system: HUVEC; assay: Antiangiogenesis activity in HUVEC cells at 0.03 to 0.3 uM incubated for 12 hrs by microscopic analysis; type: functional, cell-based; conditions: Homo sapiens, dose 0.03-0.3 µM
[39] = test system: MDA-MB-231; assay: Antitumor activity against human MDA-MB-231 cells xenografted in nude mouse assessed as reduction in tumor growth at 10 to 20 mg/kg, ip measured for 3 days; type: functional, organism-based; conditions: dose 10-20 mg/kg, time 3.0 day
[40] = Toxicity in nude mouse xenografted with human MDA-MB-231 cells assessed as change in body weight at 10 to 20 mg/kg, ip measured for 3 days; type: organism-based; conditions: in vivo, 72 h, dose 10-20 mg/kg, time 3 day
[41] = test system: MDA-MB-231; assay: Antitumor activity against human MDA-MB-231 cells xenografted in nude mouse assessed as decrease in tumor size at 10 to 20 mg/kg, ip measured for 3 days; type: functional, organism-based; conditions: dose 10-20 mg/kg, time 3.0 day
[42] = test system: MDA-MB-231; assay: Antitumor activity against human MDA-MB-231 cells xenografted in nude mouse assessed as inhibition of proliferation of tumor cells at 10 mg/kg, ip measured for 3 days by H and E staining based analysis; type: functional, organism-based; conditions: time 3.0 day
[43] = test system: MDA-MB-231; assay: Antitumor activity against human MDA-MB-231 cells xenografted in nude mouse assessed as inhibition of spleen metastasis in tumor at 10 mg/kg, ip measured for 3 days; type: functional, organism-based; conditions: time 3.0 day
[44] = test system: MDA-MB-231; assay: Antitumor activity against human MDA-MB-231 cells xenografted in nude mouse assessed as inhibition of lung metastasis in tumor at 10 mg/kg, ip measured for 3 days; type: functional, organism-based; conditions: time 3.0 day
[45] = Hepatotoxicity in nude mouse at 10 mg/kg, ip measured for 3 days; type: toxicity, organism-based; conditions: in vivo, 72 h, time 3 day
[46] = test system: MDA-MB-231; assay: Antitumor activity against human MDA-MB-231 cells xenografted in nude mouse assessed as decrease in Ki67 expression at 10 mg/kg, ip measured for 3 days by immunohistochemistry analysis; type: functional, organism-based; conditions: time 3.0 day
[47] = test system: MDA-MB-231; assay: Antitumor activity against human MDA-MB-231 cells xenografted in nude mouse assessed as decrease in CD31 expression at 10 mg/kg, ip measured for 3 days by immunohistochemistry analysis; type: functional, organism-based; conditions: time 3.0 day

Chain of Cyclin-dependent kinase 7 (P50613 whole entry): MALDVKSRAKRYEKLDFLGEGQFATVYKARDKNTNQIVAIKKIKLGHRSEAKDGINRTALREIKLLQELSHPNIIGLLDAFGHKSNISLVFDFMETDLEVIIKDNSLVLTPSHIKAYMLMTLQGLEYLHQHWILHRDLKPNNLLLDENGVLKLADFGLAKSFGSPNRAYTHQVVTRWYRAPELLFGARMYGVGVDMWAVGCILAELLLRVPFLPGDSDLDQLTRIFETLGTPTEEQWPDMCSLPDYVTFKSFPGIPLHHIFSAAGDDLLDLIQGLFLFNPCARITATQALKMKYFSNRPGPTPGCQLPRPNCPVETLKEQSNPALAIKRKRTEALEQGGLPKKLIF

## OCCN1CCC(C2CCN(c3nc(NCc4cccc(F)c4F)c4ncn(C5CCCC5)c4n3)CC2)CC1
[1]
  IC50: 390 nM
[2]
  IC50: 23 nM
[3]
  IC50: 73 nM
[4]
  IC50: 278 nM
[5]
  IC50: 38 nM
[6]
  IC50: 122 nM
[7]
  IC50: 240 nM
[8]
  IC50: 250 nM
[9]
  IC50: 2790 nM
[10]
  IC50: 2670 nM
[11]
  IC50: 3.52 µM
[12]
  IC50: 370 nM
[13]
  IC50: 4.05 µM
[14]
  IC50: 3.37 µM
[15]
  IC50: 3.92 µM
[16]
  IC50: 3.55 µM
[17]
  IC50: 3.69 µM
[18]
  IC50 at 48 h: 6.18 µM
[19]
  IC50 at 48 h: 4.28 µM
[20]
  Activity: ~100%
[21]
  Activity: ~100%
[22]
  Activity: Active
[23]
  Activity: Active
[24]
  Activity: Active
[25]
  Activity: Active
[26]
  Activity: 5.6%
[27]
  Activity: 13%
[28]
  Activity: 54.9%
[29]
  Activity: >95%
[30]
  Activity: >95%
[31]
  Activity: >95%
[32]
  Activity: 48.6%
[33]
  Activity: 80.9%
[34]
  Activity: 24.88 um
[35]
  Activity: 53.38 um
[36]
  inhibition: Active
[37]
  Activity: Active
[38]
  Activity: Active
[39]
  Activity: Active
[40]
  Activity: Non-Toxic
[41]
  Activity: Active
[42]
  Activity: Active
[43]
  Activity: Active
[44]
  Activity: Active
[45]
  Activity: Non-Toxic
[46]
  Activity: Active
[47]
  Activity: Active
